From ChEMBL document CHEMBL1144835, “Bioactive metabolites from the South African marine mollusk Trimusculus costatus” (J Nat Prod, 2008)

Test: Cytotoxicity against human WHCO1 cells after 24 hrs by MTT assay
Type: functional, cell-based
Conditions: WHCO1, 24 h

## CC(=O)O[C@H]1CC(C)(C)[C@@H]2[C@H](OC(C)=O)[C@@H](OC(C)=O)C(C)=C(CC/C(C)=C/CO)[C@@]2(C)C1
  IC50: 24 µM

## CC(=O)OC/C=C(\C)CCC1=C(C)[C@H](OC(C)=O)[C@@H](OC(C)=O)[C@H]2C(C)(C)CCC[C@]12C
  IC50: 84 µM

## CC(=O)O[C@@H]1[C@@H](OC(C)=O)C(C)=C(CC/C(C)=C/CO)[C@@]2(C)CCCC(C)(C)[C@H]12
  IC50: 25 µM

## CC(C)CCC[C@@H](C)[C@H]1CC[C@@H](C2=CC(=O)C3=C[C@H](O)CC[C@]3(C)C2=O)[C@]1(C)CCO
  IC50: 3 µM
